According to patent publication US20200246316A1, “METHODS OF TREATING POST-SURGICAL PAIN WITH A THIAZOLINE ANTI-HYPERALGESIC AGENT” (CERSCI THERAPEUTICS, INC., priority 2019, published 2020):
“Also recorded” adds a separate entry of the source. Structures can show the parent of a compound that is named as a salt. Where two headings read alike, the source gives them in different places.

Key:
pKa values = type: physicochemical
[1] = Gravimetric Vapor Sorption (GVS); type: physicochemical
Excerpt: The sample is hygroscopic.

[2] = system: lactoperoxidase oxidation (mediated by peroxide); experiment: Lactoperoxidase oxidation (mediated by peroxide); type: biochemical; conditions: physiological conditions (neutral pH)
Excerpt: In cell-based assays of PN-mediated cytotoxicity, Compound 1 is protective. […] Chemically, Compound 1 can also react stoichiometrically with peroxynitrite to form a para-nitro adduct. Without being bound by theory, by targeting and removing peroxynitrite and peroxide, Compound 1 can disrupt the ensuing cascades that lead to hypersensitivity (protein modification, ion channel hyperexcitation) thus providing a long duration event in terms of pain relief.

[3] = system: rat hind paw incision model; experiment: Brennan incisional pain model, prophylactic paradigm; type: in vivo
Excerpt: Two incisional pain models were used to assess Compound 1 effects on hyperalgesia. The first model is referred to as the Brennan model in which, under anesthesia, a 1 cm longitudinal incision to the skin and underlying fascia of a rat hindpaw is made. The second is a variation but is a more invasive procedure in which the skin and muscle are spread apart using forceps which creates a longer-lasting hypersensitivity.
Using the Brennan protocol and a prophylactic paradigm, Compound 1 (3 doses given PO) or vehicle was administered 15 min prior to incision. At the 24-, 48-, and 72-h time points post-incision, mechanical thresholds were obtained (manual von Frey filament, using up/down method).
In a subsequent experiment, the same paradigm was used with Compound 1 administered at a dose of 30 mg/kg PO along with positive control group consisting of celecoxib (30 mg/kg PO), morphine (10 mg/kg SC), and vehicle.

uninjured animals = experiment: Normal sensation in uninjured animals; type: in vivo
Excerpt: In various embodiments, Compound 1 is efficacious in in vivo animal models of acute post-incisional hyperalgesia, both prophylactically and palliatively. […] In various embodiments, less than about 1%, 0.8%, 0.6%, 0.4%, 0.2%, 0.1%, 0.08%, 0.06%, 0.04%, 0.02%, or 0.01% of Compound 1 in blood plasma penetrates the BBB.

[4] = Dog single oral dose MTD study; type: in vivo; conditions: for concentration at 0.5 h / concentration at 1 h / concentration at 2 h: dog, plasma, N = 2, read-out: Average Compound 1 Concentration in dog plasma
Method: The objective of a third single dose study in dogs was to determine the maximum tolerated dose (MTD) of Compound 1 following a single oral (gavage) dose in male and female dogs. Using a pyramiding dose schedule, dose levels of 250, 350 and 500 mg/kg were administered to 2 dogs/sex (after a washout period of at least three days, the same animals were dosed with the next dose level). The dose volume was 10 mL/kg body weight. The vehicle was 0.5% aqueous HPMC.

[5] = Dog 28-day repeat dose PO study; type: in vivo
Method: Beagle dogs (4/sex/group plus 2/sex/group for control and high dose animals for recovery) were administered daily doses of 0, 100, 250 or 400 mg/kg/day of Compound 1 in 0.5% HPMC. […] Dogs in Group 1 (Vehicle Control) were bled once at approximately 2-4 hours post-dose on those days.

[6] = Metabolic stability in hepatocytes; type: in vitro ADME
Excerpt: (§1) Further metabolism work in additional species will be undertaken.

[7] = Stability in plasma from a variety of species; type: in vitro ADME
Excerpt: as §1

[8] = Protein binding across species; type: in vitro ADME
OAT3 = target: T1, OAT3 (Homo sapiens, UniProt Q8TCC7); experiment: Inhibition of uptake (SLC) transporters; type: in vitro ADME
T1 construct: expressed in transfected cells; host or cells: HEK293 cells
T1 sequence (Q8TCC7 whole entry): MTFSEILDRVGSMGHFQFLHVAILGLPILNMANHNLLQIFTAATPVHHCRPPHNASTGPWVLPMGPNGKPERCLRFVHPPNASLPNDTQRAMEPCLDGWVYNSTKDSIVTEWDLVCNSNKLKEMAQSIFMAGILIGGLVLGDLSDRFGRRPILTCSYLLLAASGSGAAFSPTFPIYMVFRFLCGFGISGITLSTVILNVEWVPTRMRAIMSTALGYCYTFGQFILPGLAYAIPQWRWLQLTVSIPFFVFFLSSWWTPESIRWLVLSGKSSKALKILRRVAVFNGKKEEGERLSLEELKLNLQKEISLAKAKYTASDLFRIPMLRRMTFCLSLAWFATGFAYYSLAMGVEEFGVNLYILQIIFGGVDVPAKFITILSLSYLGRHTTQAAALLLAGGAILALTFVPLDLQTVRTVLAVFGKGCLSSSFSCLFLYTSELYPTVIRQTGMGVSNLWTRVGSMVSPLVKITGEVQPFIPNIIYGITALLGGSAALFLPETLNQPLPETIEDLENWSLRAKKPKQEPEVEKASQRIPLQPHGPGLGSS

MATE [9] = target: T2, MATE (Homo sapiens, UniProt Q86VL8); experiment: Inhibition of uptake (SLC) transporters; type: in vitro ADME; conditions: MATE2-K; HEK293 cells, probe [14C]-metformin (10 μM), pH 8.5, 0.3-600 μM tested
T2 construct: expressed in transfected cells; host or cells: HEK293 cells
T2 sequence (Q86VL8 1-566 isoform Q86VL8-3): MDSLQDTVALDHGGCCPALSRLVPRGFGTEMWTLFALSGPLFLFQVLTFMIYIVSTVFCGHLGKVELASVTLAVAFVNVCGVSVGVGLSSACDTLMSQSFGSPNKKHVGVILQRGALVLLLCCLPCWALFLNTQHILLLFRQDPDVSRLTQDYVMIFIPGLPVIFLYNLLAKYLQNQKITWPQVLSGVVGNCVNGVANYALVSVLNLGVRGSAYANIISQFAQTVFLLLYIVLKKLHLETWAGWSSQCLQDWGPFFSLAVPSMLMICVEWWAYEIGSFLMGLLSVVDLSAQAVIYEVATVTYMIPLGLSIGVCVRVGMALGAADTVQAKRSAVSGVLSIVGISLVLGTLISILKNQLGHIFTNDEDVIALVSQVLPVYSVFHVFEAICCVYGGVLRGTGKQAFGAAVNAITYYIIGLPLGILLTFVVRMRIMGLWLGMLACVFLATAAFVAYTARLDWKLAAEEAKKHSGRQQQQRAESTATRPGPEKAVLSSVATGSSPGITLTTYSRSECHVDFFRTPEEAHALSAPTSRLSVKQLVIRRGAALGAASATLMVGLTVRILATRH

MATE [10] = target: T3, MATE (Homo sapiens, UniProt Q96FL8); experiment: Inhibition of uptake (SLC) transporters; type: in vitro ADME; conditions: MATE1; HEK293 cells, probe [14C]-metformin (10 μM), pH 8.5, 0.3-600 μM tested
T3 construct: expressed in transfected cells; host or cells: HEK293 cells
T3 sequence (Q96FL8 whole entry): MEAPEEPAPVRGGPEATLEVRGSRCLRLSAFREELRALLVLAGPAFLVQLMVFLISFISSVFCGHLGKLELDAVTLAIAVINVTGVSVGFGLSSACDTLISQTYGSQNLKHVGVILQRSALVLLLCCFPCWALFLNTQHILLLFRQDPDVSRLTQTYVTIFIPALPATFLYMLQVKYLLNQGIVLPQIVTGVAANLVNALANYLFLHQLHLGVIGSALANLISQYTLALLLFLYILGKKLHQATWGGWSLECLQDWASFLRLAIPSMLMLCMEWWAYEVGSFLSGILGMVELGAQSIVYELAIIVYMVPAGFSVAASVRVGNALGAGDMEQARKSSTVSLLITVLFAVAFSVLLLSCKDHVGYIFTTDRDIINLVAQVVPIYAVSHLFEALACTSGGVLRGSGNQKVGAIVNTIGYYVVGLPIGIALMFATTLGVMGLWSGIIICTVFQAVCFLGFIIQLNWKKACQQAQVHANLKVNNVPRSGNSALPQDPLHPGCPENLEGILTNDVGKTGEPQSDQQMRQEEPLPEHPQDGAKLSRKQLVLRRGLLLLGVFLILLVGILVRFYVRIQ

[11] = Cytotoxicity by lactate dehydrogenase (LDH) release; type: cell-based; conditions: human, HEK293 cells; read-out: percent cytotoxicity (LDH release)
[12] = Elimination from plasma after intravenous administration in rats; type: in vivo; conditions: rat
[13] = female, 250 mg/kg PO (Dose 1; Day 1), F
[14] = female, 350 mg/kg PO (Dose 3; Day 9), F
[15] = female, 500 mg/kg PO (Dose 2; Day 4), F
[16] = male, 250 mg/kg PO (Dose 1; Day 1), M
[17] = male, 350 mg/kg PO (Dose 3; Day 9), M
[18] = male, 500 mg/kg PO (Dose 2; Day 4), M

CC1(C)SC(Nc2ccccc2O)=N[C@@H]1C(=O)O [Compound 1, (R)-2-(2-hydroxyphenylamino)-5,5-dimethyl-4,5-dihydrothiazole-4-carboxylic acid mono-hydrochloride]
pKa (pKa values; Acidic (first)): 2.29 ± 0.02 | pKa (pKa values; Acidic (second)): 10.24 ± 0.03 | pKa (pKa values; Basic): 6.97 ± 0.01 | hygroscopicity ([1]; GVS): hygroscopic | GVS uptake ([1]; between 0% and 90% RH): 6% | removal of peroxynitrite in lactoperoxidase oxidation [2]: catalytically remove peroxynitrite | reversal of hyperalgesia ([3]; 10 mg/kg PO, mono-hydrochloride): statistically significant reversal of hyperalgesia; also recorded: statistically significant effect | efficacy relative to vehicle ([3]; 30 mg/kg PO): full efficacy | dose dependence of anti-hyperalgesic effect ([3]; 3 doses PO, 24, 48, 72 h post-incision, mono-hydrochloride): reversal of hyperalgesia in a dose-dependent manner | mechanical withdrawal thresholds ([3]; 24-, 48-, 72-h post-incision, Compound 1 30 mg/kg PO, celecoxib 30 mg/kg PO, morphine 10 mg/kg SC): 32 to 35 g | dose required for significance ([3]; PO, single dose 15 min prior to incision): 10 mg/kg | duration of prevention of incisional hyperalgesia ([3]; single oral dose): at least 3 days | duration of effect on development of hyperalgesia ([3]; single oral dose, FIG. 10): prevented the development of hyperalgesia for three days | effect on development of mechanical hyperalgesia ([3]; single pre-surgical dose, 24 h, 48 h, 72 h post dose, FIG. 11): completely prevented development of mechanical hyperalgesia out through day 3 | effect on normal sensation (uninjured animals): does not alter normal sensation | concentration at 0.5 h [4, 13]: 28 µg/mL | concentration at 1 h [4, 13]: 54 µg/mL | concentration at 2 h [4, 13]: 46 µg/mL | concentration at 0.5 h [4, 14]: 67 µg/mL | concentration at 1 h [4, 14]: 154 µg/mL | concentration at 2 h [4, 14]: 119 µg/mL | concentration at 0.5 h [4, 15]: 87 µg/mL | concentration at 1 h [4, 15]: 136 µg/mL | concentration at 2 h [4, 15]: 124 µg/mL | concentration at 0.5 h [4, 16]: 71 µg/mL | concentration at 1 h [4, 16]: 110 µg/mL | concentration at 2 h [4, 16]: 91 µg/mL | concentration at 0.5 h [4, 17]: 134 µg/mL | concentration at 1 h [4, 17]: 220 µg/mL | concentration at 2 h [4, 17]: 153 µg/mL | concentration at 0.5 h [4, 18]: 111 µg/mL | concentration at 1 h [4, 18]: 191 µg/mL | concentration at 2 h [4, 18]: 193 µg/mL | emesis incidence ([4]; single dose 500 mg/kg): three of the four dosed animals | tolerability ([4]; single oral (gavage) dose 500 mg/kg): not tolerated | Cmax ([5]; 28-day pivotal dog study, at some doses): over 100 μg/mL | Tmax ([5]; 28-day study, dog): ≤ 1 h | half-life ([5]; both sexes, beagle, dog, in vivo, po, t1/2): ~3.5 h | Tmax ([5]; both sexes, beagle, dog, in vivo, po, 100 and 250 mg/kg treatment groups, read-out: median tmax): 1 h | t1/2 ([5]; both, beagle, dog, in vivo, po): 3.5 h | Cmax ([5]; female, beagle, dog, in vivo, po, 100 mg/kg, Day 1, 100 mg/kg PO, F, read-out: Cmax): 69.3 µg/mL | Cmax ([5]; female, beagle, dog, in vivo, po, 100 mg/kg, Day 15, 100 mg/kg PO, F, read-out: Cmax): 53 µg/mL | Cmax ([5]; female, beagle, dog, in vivo, po, 100 mg/kg, Day 28, 100 mg/kg PO, F, read-out: Cmax): 60.8 µg/mL | Cmax ([5]; female, beagle, dog, in vivo, po, 250 mg/kg, Day 1, 250 mg/kg PO, F, read-out: Cmax): 101 µg/mL | Cmax ([5]; female, beagle, dog, in vivo, po, 250 mg/kg, Day 15, 250 mg/kg PO, F, read-out: Cmax): 94.6 µg/mL | Cmax ([5]; female, beagle, dog, in vivo, po, 250 mg/kg, Day 28, 250 mg/kg PO, F, read-out: Cmax): 89.5 µg/mL | Cmax ([5]; female, beagle, dog, in vivo, po, 400 mg/kg, Day 1, 400 mg/kg PO, F, read-out: Cmax): 129 µg/mL | Cmax ([5]; female, beagle, dog, in vivo, po, 400 mg/kg, Day 15, 400 mg/kg PO, F, read-out: Cmax): 123 µg/mL | Cmax ([5]; female, beagle, dog, in vivo, po, 400 mg/kg, Day 28, 400 mg/kg PO, F, read-out: Cmax): 131 µg/mL | Cmax ([5]; male, beagle, dog, in vivo, po, 100 mg/kg, Day 1, 100 mg/kg PO, M, read-out: Cmax): 49.9 µg/mL | Cmax ([5]; male, beagle, dog, in vivo, po, 100 mg/kg, Day 15, 100 mg/kg PO, M, read-out: Cmax): 50.4 µg/mL | Cmax ([5]; male, beagle, dog, in vivo, po, 100 mg/kg, Day 28, 100 mg/kg PO, M, read-out: Cmax): 45 µg/mL | Cmax ([5]; male, beagle, dog, in vivo, po, 250 mg/kg, Day 1, 250 mg/kg PO, M, read-out: Cmax): 104 µg/mL | Cmax ([5]; male, beagle, dog, in vivo, po, 250 mg/kg, Day 15, 250 mg/kg PO, M, read-out: Cmax): 88 µg/mL | Cmax ([5]; male, beagle, dog, in vivo, po, 250 mg/kg, Day 28, 250 mg/kg PO, M, read-out: Cmax): 105 µg/mL | Cmax ([5]; male, beagle, dog, in vivo, po, 400 mg/kg, Day 1, 400 mg/kg PO, M, read-out: Cmax): 128 µg/mL | Cmax ([5]; male, beagle, dog, in vivo, po, 400 mg/kg, Day 15, 400 mg/kg PO, M, read-out: Cmax): 112 µg/mL | Cmax ([5]; male, beagle, dog, in vivo, po, 400 mg/kg, Day 28, 400 mg/kg PO, M, read-out: Cmax): 125 µg/mL | stability in hepatocytes ([6]; dog, mono-hydrochloride): stable; also recorded: showed metabolic stability | stability in hepatocytes ([6]; human, mono-hydrochloride): stable; also recorded: showed metabolic stability | stability in hepatocytes ([6]; monkey): showed metabolic stability | stability in hepatocytes ([6]; rat, mono-hydrochloride): stable; also recorded: showed metabolic stability | stability in plasma [7]: stable | protein binding [8]: moderately protein-bound | IC50 (OAT3; HEK293 cells, probe [3H]-estrone-3-sulfate (0.05 μM), 0.3-600 μM tested): 174 µM | transporter inhibition (OAT3; OAT3): weakly inhibits | IC50 (MATE [9]): > 600 µM | IC50 (MATE [10]): > 600 µM | cytotoxicity [11]: < 25% | half-life [12]: ~3 h
